Results taken from US20250304623A1, “PEPTIDES FOR INTRACELLULAR DELIVERY” (UNIVERSIDADE DE SANTIAGO DE COMPOSTELA, priority 2022, published 2025).
*: point of attachment. NHNH2 = NN*

What was measured:
Format in all cases: cell-based
ARPE19 cells = test: RLuc pDNA delivery, robotic library screening, ARPE19
Hela cells = test: RLuc pDNA delivery, robotic library screening, HeLa
[1] = test system: ARPE19 cells expressing EGFP; test: Cas9-RNP delivery against EGFP (gene editing, plate reader), ARPE19
Procedure: To generate an EGFP expressing HeLa cell line, HeLa cells were transfected with EGFP pDNA (pEGFP-C1, Clontech) and stable transfectants were selected with 400 μg/mL of G-418 (Millipore). Green clones were selected by epifluorescence microscopy and tested for EGFP expression stability through several passages. […] All other EGFP-expressing cell lines were obtained in a similar way from parent non-EGFP-expressing cell lines.
Cells expressing EGFP were seeded in a 96 well plate the day before the experiment at a concentration of 50,000 cell/mL (100 μL/w) in DMEM+10% FBS+1% Gln-Abt. For robotic library screening, the delivery of Cas9-RNP against EGFP (RNP designed to knock-out the gene encoding for the enhanced green fluorescent protein (EGFP)) was performed. For RNP assembly, 9.2 μL of crRNA and 9.2 μL of tracrRNA were mixed in 211.6 μL of Nuclease-Free Duplex Buffer (IDT), incubated for 5 min at 95° C. and slowly cooled at rt (see I. Lostalé-Seijo, et al. Peptide/Cas9 nanostructures for ribonucleoprotein cell membrane transport and gene edition, Chem. Sci., 2017). Cas9 protein was dissolved in DMEM at a final concentration of 4 μM and equal volumes of the RNA complex and Cas9 were mixed and incubated for 5 min at rt. 75 μL of the corresponding amphiphile concentrations were added to 5 μL of RNP at 2 μM. The mixture was shaken for 30 min at room temperature before the addition to the cells. The cell medium was aspirated, and cells were washed twice with PBS. Cells were covered with 30 μL of DMEM and 20 μL of the RNP/amphiphile complexes were added to the cells (final peptide concentrations=2.5, 5 and 10 μM; final Cas9-RNP concentration=50 nM) and incubated for 4 h. After the incubation, the medium was replaced by 100 μL of fresh DMEM supplemented with 10% FBS. The total EGFP fluorescence was quantified after 72 h in a plate reader (FIG. 2, Table 1 (right) and Table 6). All experiments were done in triplicate. […]
Tables 26-31 show the mean (triplicates) percentage of gene editing, accounted by GFP fluorescence intensity decrease (% of reduction), measured after the transfection of Cas9-RNP by different amphiphiles at different concentrations in a variety of cell lines. Background values, accounted by untreated control cells, were subtracted for processing.

With Ac-RRLK*RLK*RRLK*RL-NH2 [Peptide 13.3] the “mean luminescent intensity (RLuc pDNA)” value (ARPE19 cells; Dodecanal, 5 μM) was 2557 RLU, the “mean luminescent intensity (RLuc pDNA)” value (ARPE19 cells; Myristoleyl, 5 μM) was 6819 RLU and the “mean luminescent intensity (RLuc pDNA)” value (ARPE19 cells; Myristoleyl, 10 μM) was 3064 RLU. The “mean luminescent intensity (RLuc pDNA)” value (ARPE19 cells; Myristoleyl, 15 μM) was −316 RLU, the “mean luminescent intensity (RLuc pDNA)” value (ARPE19 cells; Oleyl, 5 μM) was 1946 RLU and the “mean luminescent intensity (RLuc pDNA)” value (ARPE19 cells; Oleyl, 10 μM) was 957 RLU. The “mean luminescent intensity (RLuc pDNA)” value (ARPE19 cells; Oleyl, 15 μM) was 1379 RLU, the “mean luminescent intensity (RLuc pDNA)” value (ARPE19 cells; Palmitoleyl, 5 μM) was 13194 RLU and the “mean luminescent intensity (RLuc pDNA)” value (ARPE19 cells; Petroselinyl, 5 μM) was 1458 RLU. The “mean luminescent intensity (RLuc pDNA)” value (ARPE19 cells; Petroselinyl, 10 μM) was 35316 RLU, the “mean luminescent intensity (RLuc pDNA)” value (ARPE19 cells; Petroselinyl, 15 μM) was 5730 RLU and the “mean luminescent intensity (RLuc pDNA)” value (Hela cells; HeLa, Dodecanal, 5 μM) was 18306 RLU. For the same substance, the “mean luminescent intensity (RLuc pDNA)” value (Hela cells; HeLa, Petroselinyl, 10 μM) was 4639 RLU, the “mean luminescent intensity (RLuc pDNA)” value (Hela cells; Hela, Dodecanal, 10 μM) was 23656 RLU and the “mean luminescent intensity (RLuc pDNA)” value (Hela cells; Hela, Myristoleyl, 5 μM) was 17325 RLU. For the same substance, the “mean luminescent intensity (RLuc pDNA)” value (Hela cells; Hela, Myristoleyl, 10 μM) was 2310 RLU, the “mean luminescent intensity (RLuc pDNA)” value (Hela cells; Hela, Myristoleyl, 15 μM) was −37 RLU and the “mean luminescent intensity (RLuc pDNA)” value (Hela cells; Hela, Oleyl, 15 μM) was 1922 RLU. For the same substance, the “mean luminescent intensity (RLuc pDNA)” value (Hela cells; Hela, Palmitoleyl, 5 μM) was 18783 RLU, the “mean luminescent intensity (RLuc pDNA)” value (Hela cells; Hela, Palmitoleyl, 10 μM) was 105810 RLU and the “mean luminescent intensity (RLuc pDNA)” value (Hela cells; Hela, Palmitoleyl, 15 μM) was 137093 RLU. For the same substance, the “mean luminescent intensity (RLuc pDNA)” value (Hela cells; Hela, Petroselinyl, 5 μM) was 657 RLU, the “mean luminescent intensity (RLuc pDNA)” value (Hela cells; Hela, Petroselinyl, 15 μM) was 90989 RLU and the “percentage of gene editing, GFP fluorescence intensity decrease (% of reduction)” value ([1]; Dodecanal, 10 μM) was 13%. For the same substance, the “percentage of gene editing, GFP fluorescence intensity decrease (% of reduction)” value ([1]; Dodecanal, 15 μM) was 18%, the “percentage of gene editing, GFP fluorescence intensity decrease (% of reduction)” value ([1]; Myristoleyl, 10 μM) was 32% and the “percentage of gene editing, GFP fluorescence intensity decrease (% of reduction)” value ([1]; Myristoleyl, 15 μM) was 38%. For the same substance, the “percentage of gene editing, GFP fluorescence intensity decrease (% of reduction)” value ([1]; Oleyl, 5 μM) was 20% and the “percentage of gene editing, GFP fluorescence intensity decrease (% of reduction)” value ([1]; Petroselinyl, 15 μM) was −11%.
For “Ac-RK*LRK*K*L-NH2 (Ac-RK(NHNH2)LRK(NHNH2)K(NHNH2)L-NH2; not fully specified; printed as Ac-RK*LRK*K*L-NH2; also: K*2,K*5,K*6: native or modified lysine (ε-amide to a linker)) [Peptide 7.3]”, the “mean luminescent intensity (RLuc pDNA)” value (ARPE19 cells; Dodecanal, 5 μM) was 661 RLU, the “mean luminescent intensity (RLuc pDNA)” value (ARPE19 cells; Dodecanal, 10 μM) was 458 RLU and the “mean luminescent intensity (RLuc pDNA)” value (ARPE19 cells; Dodecanal, 15 μM) was 558 RLU. The “mean luminescent intensity (RLuc pDNA)” value (ARPE19 cells; Myristoleyl, 5 μM) was −209 RLU, the “mean luminescent intensity (RLuc pDNA)” value (ARPE19 cells; Myristoleyl, 10 μM) was −262 RLU and the “mean luminescent intensity (RLuc pDNA)” value (ARPE19 cells; Myristoleyl, 15 μM) was −315 RLU. For the same substance, the “mean luminescent intensity (RLuc pDNA)” value (ARPE19 cells; Palmitoleyl, 5 μM) was 344 RLU, the “mean luminescent intensity (RLuc pDNA)” value (ARPE19 cells; Petroselinyl, 5 μM) was 22197 RLU and the “mean luminescent intensity (RLuc pDNA)” value (ARPE19 cells; Petroselinyl, 10 μM) was 31833 RLU. The “mean luminescent intensity (RLuc pDNA)” value (ARPE19 cells; Petroselinyl, 15 μM) was 7692 RLU, the “mean luminescent intensity (RLuc pDNA)” value (Hela cells; HeLa, Dodecanal, 5 μM) was 5231 RLU and the “mean luminescent intensity (RLuc pDNA)” value (Hela cells; Hela, Myristoleyl, 5 μM) was −622 RLU. For the same substance, the “mean luminescent intensity (RLuc pDNA)” value (Hela cells; Hela, Myristoleyl, 10 μM) was −417 RLU, the “mean luminescent intensity (RLuc pDNA)” value (Hela cells; Hela, Myristoleyl, 15 μM) was −422 RLU and the “mean luminescent intensity (RLuc pDNA)” value (Hela cells; Hela, Palmitoleyl, 15 μM) was 19128 RLU. For the same substance, the “mean luminescent intensity (RLuc pDNA)” value (Hela cells; Hela, Petroselinyl, 15 μM) was 12638 RLU, the “percentage of gene editing, GFP fluorescence intensity decrease (% of reduction)” value ([1]; Dodecanal, 5 μM) was 9% and the “percentage of gene editing, GFP fluorescence intensity decrease (% of reduction)” value ([1]; Dodecanal, 10 μM) was 14%. For the same substance, the “percentage of gene editing, GFP fluorescence intensity decrease (% of reduction)” value ([1]; Oleyl, 5 μM) was 22%, the “percentage of gene editing, GFP fluorescence intensity decrease (% of reduction)” value ([1]; Oleyl, 10 μM) was 35% and the “percentage of gene editing, GFP fluorescence intensity decrease (% of reduction)” value ([1]; Oleyl, 15 μM) was 42%. For the same substance, the “percentage of gene editing, GFP fluorescence intensity decrease (% of reduction)” value ([1]; Palmitoleyl, 5 μM) was 7%, the “percentage of gene editing, GFP fluorescence intensity decrease (% of reduction)” value ([1]; Palmitoleyl, 10 μM) was 9% and the “percentage of gene editing, GFP fluorescence intensity decrease (% of reduction)” value ([1]; Palmitoleyl, 15 μM) was 12%. For the same substance, the “percentage of gene editing, GFP fluorescence intensity decrease (% of reduction)” value ([1]; Petroselinyl, 5 μM) was 25% and the “percentage of gene editing, GFP fluorescence intensity decrease (% of reduction)” value ([1]; Petroselinyl, 10 μM) was 13%.
